The target of this assay is T1, human KEAP1 (N-term, residues 321-609) (Homo sapiens, UniProt Q14145).
T1 construct: human KEAP1 (N-term, residues 321-609)
The experiment in a line: KEAP1 Kelch Fluorescence Polarization (FP) Assay. The class given is binding. The following applies: inhibition of Kelch domain-NRF2 interaction; 2 nM FITC-labelled NRF2 peptide, 25 nM KEAP1, 1 h room temperature; compounds below 10 nM cannot be differentiated. As for the experimental part:
KEAP1 Kelch Fluorescence Polarization (FP) Assay Method
Inhibition of the Kelch domain-NRF2 interaction was determined using a fluorescence polarization-based competition assay in a black 384-well microplate. Compounds were tested at a starting concentration of 10 μM serially diluted 1:3 to generate a 12-point dose response curve on the Biomek FX robot. Each well contained 2 nM FITC-labelled NRF2 peptide (FITC-LDEETGEFL-NH2) and 25 nM human KEAP1 (N-term, residues 321-609) enzyme in a final volume of 20 μL of assay buffer (50 mM Tris-HCl pH 8.0, 100 mM NaCl, 5 mM MgCl2, 0.005% Tween-20, 0.005% BSA, 0.5% DMSO) in the presence of varying concentrations of test compound. Unlabelled peptide (LDEETGEFL-NH2) at 50 μM (negative control) and 0.5% DMSO (positive control) was used to determine the assay window.
After 1 h at room temperature, fluorescence polarization (excitation 470 nm/emission 530 nm) was measured using an Envision plate reader. IC50 values were determined by fitting the data to a four parameter logistic fit using XLfit or XE Runner within ActivityBase. The assay limit is such that compounds below 10 nM cannot be differentiated.

pIC50: −log10 of the molar value.

T1 sequence (Q14145 321-609): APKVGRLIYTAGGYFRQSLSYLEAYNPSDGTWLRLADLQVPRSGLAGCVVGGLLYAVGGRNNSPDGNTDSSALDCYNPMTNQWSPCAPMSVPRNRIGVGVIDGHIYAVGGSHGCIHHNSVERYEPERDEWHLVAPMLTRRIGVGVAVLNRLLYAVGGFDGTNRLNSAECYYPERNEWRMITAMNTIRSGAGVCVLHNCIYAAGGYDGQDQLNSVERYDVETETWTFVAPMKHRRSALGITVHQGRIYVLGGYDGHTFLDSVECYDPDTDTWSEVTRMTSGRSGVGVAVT

On to `CNC(=O)[C@H]1CCCC[C@H]1C(=O)N1CCc2cccc(OCc3cnccn3)c2[C@H]1CN1C(=O)c2ccccc2C1=O` [Example 27, (1S,2R)-2-((S)-1-((1,3-dioxoisoindolin-2-yl)methyl)-8-(pyrazin-2-ylmethoxy)-1,2,3,4-tetrahydroisoquinoline-2-carbonyl)-N-methylcyclohexane-1-carboxamide], for which the pIC50 is 6.25. The same measure for `CNC(=O)N1CCCC[C@H]1C(=O)N1CCc2cccc(O[C@H]3CCN(C(=O)c4cncs4)C3)c2[C@H]1CN1C(=O)c2ccccc2C1=O` [Example 28, (S)-2-((S)-1-((1,3-dioxoisoindolin-2-yl)methyl)-8-(((S)-1-(thiazole-5-carbonyl)pyrrolidin-3-yl)oxy)-1,2,3,4-tetrahydroisoquinoline-2-carbonyl)-N-methylpiperidine-1-carboxamide]: 7.37. The same measure for `CCCNC(=O)[C@H]1CCCC[C@H]1C(=O)N1CCc2cccc(O[C@H]3CCN(C(=O)c4cncs4)C3)c2[C@H]1CN1C(=O)c2ccccc2C1=O` [Example 29, (1S,2R)-2-((S)-1-((1,3-dioxoisoindolin-2-yl)methyl)-8-(((S)-1-(thiazole-5-carbonyl)pyrrolidin-3-yl)oxy)-1,2,3,4-tetrahydroisoquinoline-2-carbonyl)-N-propylcyclohexane-1-carboxamide]: 6.78; for `COCCNC(=O)[C@H]1CCCC[C@H]1C(=O)N1CCc2cccc(O[C@H]3CCN(C(=O)c4cncs4)C3)c2[C@H]1CN1C(=O)c2ccccc2C1=O` [Example 30, (1S,2R)-2-((S)-1-((1,3-dioxoisoindolin-2-yl)methyl)-8-(((S)-1-(thiazole-5-carbonyl)pyrrolidin-3-yl)oxy)-1,2,3,4-tetrahydroisoquinoline-2-carbonyl)-N-(2-methoxyethyl)cyclo-hexane-1-carboxamide]: 6.67; for `O=C(NCC(F)F)[C@H]1CCCC[C@H]1C(=O)N1CCc2cccc(O[C@H]3CCN(C(=O)c4cncs4)C3)c2[C@H]1CN1C(=O)c2ccccc2C1=O` [Example 31, (1S,2R)-N-(2,2-difluoroethyl)-2-((S)-1-((1,3-dioxoisoindolin-2-yl)methyl)-8-(((S)-1-(thiazole-5-carbonyl)pyrrolidin-3-yl)oxy)-1,2,3,4-tetrahydroisoquinoline-2-carbonyl)cyclohexane-1-carboxamide]: 6.27. The same measure for `O=C(NCC(F)(F)F)[C@H]1CCCC[C@H]1C(=O)N1CCc2cccc(O[C@H]3CCN(C(=O)c4cncs4)C3)c2[C@H]1CN1C(=O)c2ccccc2C1=O` [Example 32, (1S,2R)-2-((S)-1-((1,3-dioxoisoindolin-2-yl)methyl)-8-(((S)-1-(thiazole-5-carbonyl)pyrrolidin-3-yl)oxy)-1,2,3,4-tetrahydroisoquinoline-2-carbonyl)-N-(2,2,2-trifluoroethyl)cyclohexane-1-carboxamide]: 5.68; for `N#CCNC(=O)[C@H]1CCCC[C@H]1C(=O)N1CCc2cccc(O[C@H]3CCN(C(=O)c4cncs4)C3)c2[C@H]1CN1C(=O)c2ccccc2C1=O` [Example 33, (1S,2R)-N-(cyanomethyl)-2-((S)-1-((1,3-dioxoisoindolin-2-yl)methyl)-8-(((S)-1-(thiazole-5-carbonyl)pyrrolidin-3-yl)oxy)-1,2,3,4-tetrahydroisoquinoline-2-carbonyl)cyclohexane-1-carboxamide]: 5.82; for `O=C(NCCO)[C@H]1CCCC[C@H]1C(=O)N1CCc2cccc(O[C@H]3CCN(C(=O)c4cncs4)C3)c2[C@H]1CN1C(=O)c2ccccc2C1=O` [Example 35, (1S,2R)-2-((S)-1-((1,3-dioxoisoindolin-2-yl)methyl)-8-(((S)-1-(thiazole-5-carbonyl)pyrrolidin-3-yl)oxy)-1,2,3,4-tetrahydroisoquinoline-2-carbonyl)-N-(2-hydroxyethyl)cyclohexane-1-carboxamide]: 6.73. `CNC(=O)N[C@@H](C)C(=O)N1CCc2cccc(O[C@H]3CCN(C(=O)c4cncs4)C3)c2[C@H]1CN1C(=O)c2ccccc2C1=O` [Example 36, 1-((S)-1-((S)-1-((1,3-dioxoisoindolin-2-yl)methyl)-8-(((S)-1-(thiazole-5-carbonyl)pyrrolidin-3-yl)oxy)-3,4-dihydroisoquinolin-2(1H)-yl)-1-oxopropan-2-yl)-3-methylurea] gave a pIC50 of 6.90.

Turning to `CNC(=O)[C@H]1CCCC[C@H]1C(=O)N1CCc2c(Cl)ccc(O[C@H]3CCN(C(C)=O)C3)c2[C@H]1CN1C(=O)c2ccccc2C1=O` [Example 37, (1S,2R)-2-((S)-8-(((S)-1-acetylpyrrolidin-3-yl)oxy)-5-chloro-1-((1,3-dioxoisoindolin-2-yl)methyl)-1,2,3,4-tetrahydroisoquinoline-2-carbonyl)-N-methylcyclohexane-1-carboxamide], the pIC50 is 7.36. In the case of `CNC(=O)[C@H]1CCCC[C@H]1C(=O)N1CCc2cccc(O[C@H]3CCN(C(=O)c4cncs4)C3)c2[C@H]1CNC(=O)C1CC1` [Example 38, (1S,2R)-2-((S)-1-(cyclopropanecarboxamidomethyl)-8-(((S)-1-(thiazole-5-carbonyl)pyrrolidin-3-yl)oxy)-1,2,3,4-tetrahydroisoquinoline-2-carbonyl)-N-methylcyclohexane-1-carboxamide] it was 5.09; in that of `CNC(=O)[C@H]1CCCC[C@H]1C(=O)N1CCc2cccc(OCc3ccn[nH]3)c2[C@H]1CN1C(=O)c2ccccc2C1=O` [Example 39, (1S,2R)-2-((S)-8-((1H-pyrazol-5-yl)methoxy)-1-((1,3-dioxoisoindolin-2-yl)methyl)-1,2,3,4-tetrahydroisoquinoline-2-carbonyl)-N-methylcyclo hexane-1-carboxamide], 5.52; in that of `CNC(=O)CCCC(=O)N1CCc2cccc(O[C@H]3CCN(C(=O)c4cncs4)C3)c2[C@H]1CN1C(=O)c2ccccc2C1=O` [Example 40, 5-((S)-1-((1,3-dioxoisoindolin-2-yl)methyl)-8-(((S)-1-(thiazole-5-carbonyl)pyrrolidin-3-yl)oxy)-3,4-dihydroisoquinolin-2(1H)-yl)-N-methyl-5-oxopentanamide], 6.28. The same measure for `CNC(=O)CCC(=O)N1CCc2cccc(O[C@H]3CCN(C(=O)c4cncs4)C3)c2[C@H]1CN1C(=O)c2ccccc2C1=O` [Example 41, 4-((S)-1-((1,3-dioxoisoindolin-2-yl)methyl)-8-(((S)-1-(thiazole-5-carbonyl)pyrrolidin-3-yl)oxy)-3,4-dihydroisoquinolin-2(1H)-yl)-N-methyl-4-oxobutanamide]: 6.10; for `O=C(NCCCO)[C@H]1CCCC[C@H]1C(=O)N1CCc2cccc(O[C@H]3CCN(C(=O)c4cncs4)C3)c2[C@H]1CN1C(=O)c2ccccc2C1=O` [Example 43, (1S,2R)-2-((S)-1-((1,3-dioxoisoindolin-2-yl)methyl)-8-(((S)-1-(thiazole-5-carbonyl)pyrrolidin-3-yl)oxy)-1,2,3,4-tetrahydroisoquinoline-2-carbonyl)-N-(3-hydroxypropyl)cyclohexane-1-carboxamide]: 6.73; for `CNC(=O)[C@H]1CCCC[C@H]1C(=O)N1CCc2cccc(O[C@H]3CCN(C(=O)c4cncs4)C3)c2[C@H]1CNC(C)=O` [Example 44]: 5.93. In the case of `CNC(=O)[C@H]1CCCC[C@H]1C(=O)N1CCc2cccc(O[C@H]3CCN(C(=O)c4cncs4)C3)c2[C@H]1CN1CCOC1=O` [Example 45, (1S,2R)-N-methyl-2-((S)-1-((2-oxooxazolidin-3-yl)methyl)-8-(((S)-1-(thiazole-5-carbonyl)pyrrolidin-3-yl)oxy)-1,2,3,4-tetrahydroisoquinoline-2-carbonyl)cyclohexane-1-carboxamide] it was 6.51; in that of `CNC(=O)[C@H]1CCCC[C@H]1C(=O)N1CCc2cccc(OCCCC(=O)O)c2[C@H]1CN1C(=O)c2ccccc2C1=O` [Example 46, 4-(((S)-1-((1,3-dioxoisoindolin-2-yl)methyl)-24(1 R,2S)-2-(methylcarbamoyncyclohexane-1-carbonyl)-1,2,3,4-tetrahydroisoquinolin-8-yl)oxy)butanoic acid], 7.08; in that of `CCC(=O)NC[C@@H]1c2c(cccc2O[C@H]2CCN(C(=O)c3cncs3)C2)CCN1C(=O)[C@@H]1CCCC[C@@H]1C(=O)NC` [Example 47, (1S,2R)-N-methyl-2-((S)-1-(propionamidomethyl)-8-(((S)-1-(thiazole-5-carbonyl)pyrrolidin-3-yl)oxy)-1,2,3,4-tetrahydroisoquinoline-2-carbonyl)cyclohexane-1-carboxamide], 5.27.

Take `CNC(=O)[C@H]1CCCCN1C(=O)N1CCc2cccc(O[C@H]3CCN(C(=O)c4cncs4)C3)c2[C@H]1CN1C(=O)c2ccccc2C1=O` [Example 48]: the pIC50 was 6.14.

`CNC(=O)[C@H]1CCCC[C@H]1C(=O)N1CCc2cccc(OCc3cnn(C)c3)c2[C@H]1CN1C(=O)c2ccccc2C1=O` [Example 49, (1S,2R)-2-((S)-1-((1,3-dioxoisoindolin-2-yl)methyl)-8-((1-methyl-1H-pyrazol-4-yl)methoxy)-1,2,3,4-tetrahydroisoquinoline-2-carbonyl)-N-methylcyclohexane-1-carboxamide] showed a pIC50 of 5.74.

Values taken from patent US20230159511A1, “TETRAHYDROISOQUINOLINE COMPOUNDS AS NRF2 ACTIVATORS” (C4X Discovery Limited, priority 2020, published 2023).
